In PubChem BioAssay AID1963852 (Molecular Pharmacology Branch, DTP, NCI, 2024):

System: 282377-053-R-J1-PDC complex spheroid viability
Test: Anticancer human tumor 282377-053-R-J1-PDC patient-derived colon adenocarcinoma cell line growth inhibition [POLQ]
Conditions: for IC50: curve of first compound; for viability, T/C: stronger effect = lower value
Method in brief: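 Complex spheroid viability model combining PDC tumour cells with endothelial (HUVEC) and MSC stromal cells. Novobiocin, ART-558 or RP6685 were tested singly and in combination with standard and investigational anticancer drugs. Each was titrated in half-log steps from near clinical Cmax, or from 10 microM where Cmax was unknown.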
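Further: spheroids exposed to compounds for seven days.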
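Wherever viability, T/C is given: 100% = DMSO vehicle control viability.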

Question: Which IC50 (second compound 0.0316 µM) does the source give for `Cn1ncnc1[C@H]1c2n[nH]c(=O)c3cc(F)cc(c23)N[C@@H]1c1ccc(F)cc1` + Nc1ccc(C#CCN(C(=O)Cc2ncc(C(F)(F)F)cc2C(F)(F)F)c2ccc(F)cc2)nn1 here?
Answer: Its IC50 is greater than 100 nM.

Question: And the IC50 (second compound 0.1 µM)?
Answer: The IC50 was greater than 100 nM.

Question: What about the IC50 (second compound 0.316 µM) of the same molecule?
Answer: Its IC50 is greater than 100 nM.

Question: What about the IC50 (second compound 1 µM) of the same molecule?
Answer: The IC50 was greater than 100 nM.

Question: And the IC50 (second compound 3.16 µM)?
Answer: The IC50 was greater than 100 nM.

Question: What about the IC50 (second compound 10 µM) of the same molecule?
Answer: Its IC50 is greater than 100 nM.

Question: What about the viability, T/C (second compound 0.0316 µM, first compound 0.000316 µM) of the same molecule?
Answer: The viability, T/C was 98.9%.

Question: What about the viability, T/C (second compound 0.0316 µM, first compound 0.001 µM) of the same molecule?
Answer: Its viability, T/C is 94.9%.

Question: What about the viability, T/C (second compound 0.0316 µM, first compound 0.00316 µM) of the same molecule?
Answer: The viability, T/C was 91.9%.

Question: And the viability, T/C (second compound 0.0316 µM, first compound 0.01 µM)?
Answer: The viability, T/C was 101%.

Question: And the viability, T/C (second compound 0.0316 µM, first compound 0.0316 µM)?
Answer: The viability, T/C was 108%.

Question: What about the viability, T/C (second compound 0.0316 µM, first compound 0.1 µM) of the same molecule?
Answer: The viability, T/C was 94.3%.

Question: What about the viability, T/C (second compound 0.1 µM, first compound 0.000316 µM) of the same molecule?
Answer: Its viability, T/C is 105%.

Question: What about the viability, T/C (second compound 0.1 µM, first compound 0.001 µM) of the same molecule?
Answer: The viability, T/C was 108%.

Question: What about the viability, T/C (second compound 0.1 µM, first compound 0.00316 µM) of the same molecule?
Answer: The viability, T/C was 84.1%.

Question: What about the viability, T/C (second compound 0.1 µM, first compound 0.01 µM) of the same molecule?
Answer: Its viability, T/C is 97.3%.

Question: And the viability, T/C (second compound 0.1 µM, first compound 0.0316 µM)?
Answer: Its viability, T/C is 100%.

Question: What about the viability, T/C (second compound 0.1 µM, first compound 0.1 µM) of the same molecule?
Answer: The viability, T/C was 81.9%.

Question: And the viability, T/C (second compound 0.316 µM, first compound 0.000316 µM)?
Answer: Its viability, T/C is 99%.

Question: What about the viability, T/C (second compound 0.316 µM, first compound 0.001 µM) of the same molecule?
Answer: The viability, T/C was 93.7%.

Question: What about the viability, T/C (second compound 0.316 µM, first compound 0.00316 µM) of the same molecule?
Answer: The viability, T/C was 108%.

Question: And the viability, T/C (second compound 0.316 µM, first compound 0.01 µM)?
Answer: Its viability, T/C is 93.8%.

Question: What about the viability, T/C (second compound 0.316 µM, first compound 0.0316 µM) of the same molecule?
Answer: The viability, T/C was 97.7%.

Question: What about the viability, T/C (second compound 0.316 µM, first compound 0.1 µM) of the same molecule?
Answer: Its viability, T/C is 95.2%.

Question: What about the viability, T/C (second compound 1 µM, first compound 0.000316 µM) of the same molecule?
Answer: The viability, T/C was 102%.

Question: And the viability, T/C (second compound 1 µM, first compound 0.001 µM)?
Answer: Its viability, T/C is 96.8%.

Question: What about the viability, T/C (second compound 1 µM, first compound 0.00316 µM) of the same molecule?
Answer: Its viability, T/C is 94.5%.

Question: What about the viability, T/C (second compound 1 µM, first compound 0.01 µM) of the same molecule?
Answer: Its viability, T/C is 86.9%.

Question: What about the viability, T/C (second compound 1 µM, first compound 0.0316 µM) of the same molecule?
Answer: Its viability, T/C is 103%.

Question: And the viability, T/C (second compound 1 µM, first compound 0.1 µM)?
Answer: The viability, T/C was 104%.

Question: What about the viability, T/C (second compound 3.16 µM, first compound 0.000316 µM) of the same molecule?
Answer: Its viability, T/C is 105%.

Question: What about the viability, T/C (second compound 3.16 µM, first compound 0.001 µM) of the same molecule?
Answer: Its viability, T/C is 100%.

Question: What about the viability, T/C (second compound 3.16 µM, first compound 0.00316 µM) of the same molecule?
Answer: The viability, T/C was 100%.

Question: What about the viability, T/C (second compound 3.16 µM, first compound 0.01 µM) of the same molecule?
Answer: Its viability, T/C is 110%.

Question: And the viability, T/C (second compound 3.16 µM, first compound 0.0316 µM)?
Answer: The viability, T/C was 113%.

Question: And the viability, T/C (second compound 3.16 µM, first compound 0.1 µM)?
Answer: The viability, T/C was 93.9%.

Question: And the viability, T/C (second compound 10 µM, first compound 0.000316 µM)?
Answer: Its viability, T/C is 122%.

Question: And the viability, T/C (second compound 10 µM, first compound 0.001 µM)?
Answer: The viability, T/C was 119%.

Question: And the viability, T/C (second compound 10 µM, first compound 0.00316 µM)?
Answer: The viability, T/C was 121%.

Question: And the viability, T/C (second compound 10 µM, first compound 0.01 µM)?
Answer: The viability, T/C was 119%.

Question: What about the viability, T/C (second compound 10 µM, first compound 0.0316 µM) of the same molecule?
Answer: Its viability, T/C is 111%.

Question: What about the viability, T/C (second compound 10 µM, first compound 0.1 µM) of the same molecule?
Answer: Its viability, T/C is 127%.
